{"source": "patent US20140303092A1", "about": "(CHIMERIX, INC., priority 2011, published 2014)", "key": {"[1]": {"test_system": "CMV", "test": "Study HDP-CDV-350: virologic response of refractory CMV infection in HCT recipients", "format": "in vivo, human (allogeneic HCT recipients)", "details": "for Proportion of subjects with ≧1 log10 last on-treatment reduction or last on-treatment reduction to ≦ LLOQ / Proportion of subjects with ≧1 log10 postbaseline reduction in CMV DNAemia or postbaseline reduction to ≦ LLOQ: LLOQ 100 copies/mL", "protocol": "The virologic responses of 16 allogeneic HCT recipients enrolled and treated with HDP-CDV due to refractory CMV infection or disease and/or intolerance to available anti-CMV medications were evaluated.\nAll subjects completed a screening assessment (including obtaining written informed consent and, where applicable, assent) prior to initiating treatment with HDP-CDV.\nHDP-CDV was given orally twice weekly (BIW); 100 mg BIW for adults or 2 mg/kg BIW for pediatrics. […] Eligible subjects received either a weight-based or fixed dose of HDP-CDV. Pediatric subjects (≦12 years old) received a 4 mg/kg total weekly dose (not-to-exceed 200 mg), as either 2 mg/kg twice-weekly (BIW) or 4 mg/kg once-weekly (QW). Adults and adolescent (13-17 years old) subjects received a 200 mg (not to exceed 4 mg/kg) total weekly dose, as either 100 mg BIW or 200 mg QW. BIW doses were administered at alternating 3- and 4-day intervals and QW doses on the same day each week.\nSubjects were treated for an initial period of up to 3 months until either resolution or stabilization of their clinical disease or for 4 weeks following resolution of viral DNAemia, depending on the disease under treatment, whichever was longer. Treatment is extended for up to an additional 3 months, for a total duration of 6 months treatment, depending on the subject's clinical response.\nSubjects underwent extensive safety monitoring, including routine safety laboratory assessments, physical examination, and vital sign measurements at regular intervals. In addition, subjects were monitored for viral DNA burden in plasma (DNAemia) and other affected compartments (e.g., urine, stool, CSF, etc.). Assessments were performed weekly for the first month, every 1 or 2 weeks for the next 2 months, and monthly thereafter for as long as treatment was continued. Subjects were monitored for adverse events (AEs) and for selected concomitant medication throughout the entire study, including the 1 month posttreatment follow-up period."}, "[2]": {"test": "Study HDP-CDV-201 post hoc analysis of preemptive therapy with anti-CMV STOC during follow-up", "format": "in vivo, human (HCT recipients)", "protocol": "Subjects who developed CMV infection or disease at any time during the up to 11-week treatment period (through approximately 100 days posttransplant) were discontinued from study treatment (i.e., HDP-CDV or placebo) and followed for a period of 4 weeks, while subjects who completed the treatment period were followed for a period of 8 weeks. After study treatment was discontinued, subjects were treated with PrT for CMV infection/disease.\nAmong the study population (N=230 subjects), subjects who received STOC for PrT, defined as receiving at least one of GCV, vGCV, FOS or IV CDV for the explicit treatment of CMV infection/disease during the follow-up (“FU”) period, were identified. […]\nBaseline measures for clinical laboratory values were defined as the last value on or before the last day of study treatment. The maximal decrease in ANC was determined using the minimum value reported after the last day of study treatment. The maximal increase in serum creatinine was determined using the maximum value reported after the last day of study treatment. […]\nAEs were counted if the onset day was after the last day of study treatment. […] P-values were determined using Fisher's exact test for binary data and an independent t-test (pooled) for continuous data."}}}
{"smiles": "CCCCCCCCCCCCCCCCOCCCOP(=O)(O)COC(CO)Cn1ccc(N)nc1=O", "note": "(centres unmarked) [HDP-CDV]", "values": [{"measurement": "Maximal reduction in CMV VL from BL, mean (range)", "setting": "[1]; 16 HCT recipients, 100 mg BIW adults or 2 mg/kg BIW pediatrics", "value": "1.13 (−0.30-2.60) log10"}, {"measurement": "Mean last on-treatment change from baseline CMV DNAemia", "setting": "[1]; 16 subjects, qPCR plasma", "value": "−0.63", "unit": "log10 copies/mL"}, {"measurement": "Mean maximal postbaseline change in CMV DNAemia", "setting": "[1]; 16 subjects, qPCR plasma", "value": "−1.13", "unit": "log10 copies/mL"}, {"measurement": "Change from Baseline CMV DNAemia, Mean", "setting": "[1]; +1 Month Posttreatment, N 8", "value": "−1.00", "unit": "log10 copies/mL"}, {"measurement": "Change from Baseline CMV DNAemia, Mean", "setting": "[1]; +1 Week Posttreatment, N 9", "value": "−0.63", "unit": "log10 copies/mL"}, {"measurement": "Proportion of subjects with ≧1 log10 last on-treatment reduction or last on-treatment reduction to ≦ LLOQ", "setting": "[1]", "value": "(62.5%)"}, {"measurement": "Proportion of subjects with ≧1 log10 postbaseline reduction in CMV DNAemia or postbaseline reduction to ≦ LLOQ", "setting": "[1]", "value": "(81.3%)"}, {"measurement": "Change from Baseline CMV DNAemia, Mean", "setting": "[1]; Month 3, N 7", "value": "+0.16 log10 copies/mL"}, {"measurement": "Change from Baseline CMV DNAemia, Mean", "setting": "[1]; Month 4, N 4", "value": "−0.89", "unit": "log10 copies/mL"}, {"measurement": "Change from Baseline CMV DNAemia, Mean", "setting": "[1]; Month 5, N 3", "value": "−0.84", "unit": "log10 copies/mL"}, {"measurement": "Change from Baseline CMV DNAemia, Mean", "setting": "[1]; Month 6, N 3", "value": "−0.80", "unit": "log10 copies/mL"}, {"measurement": "subjects with >1 log10 reduction or ≦LOQ (2 log10) during tx", "setting": "[1]; Thirteen of 16 subjects", "value": 81, "unit": "%"}, {"measurement": "Change from Baseline CMV DNAemia, Mean", "setting": "[1]; Week 2, N 16", "value": "−0.22", "unit": "log10 copies/mL"}, {"measurement": "Change from Baseline CMV DNAemia, Mean", "setting": "[1]; Week 3, N 15", "value": "−0.30", "unit": "log10 copies/mL"}, {"measurement": "Change from Baseline CMV DNAemia, Mean", "setting": "[1]; Week 4, N 15", "value": "−0.52", "unit": "log10 copies/mL"}, {"measurement": "Change from Baseline CMV DNAemia, Mean", "setting": "[1]; Week 5, N 14", "value": "−0.63", "unit": "log10 copies/mL"}, {"measurement": "Change from Baseline CMV DNAemia, Mean", "setting": "[1]; Week 6, N 6", "value": "−0.66", "unit": "log10 copies/mL"}, {"measurement": "Change from Baseline CMV DNAemia, Mean", "setting": "[1]; Week 7, N 10", "value": "−0.16", "unit": "log10 copies/mL"}, {"measurement": "Change from Baseline CMV DNAemia, Mean", "setting": "[1]; Week 8, N 3", "value": "+0.22 log10 copies/mL"}, {"measurement": "Change from Baseline CMV DNAemia, Mean", "setting": "[1]; Week 9, N 8", "value": "−0.02", "unit": "log10 copies/mL"}, {"measurement": "Change from Baseline CMV DNAemia, Mean", "setting": "[1]; Week 10, N 2", "value": "+0.11 log10 copies/mL"}, {"measurement": "Change from Baseline CMV DNAemia, Mean", "setting": "[1]; Week 11, N 9", "value": "+0.06 log10 copies/mL"}, {"measurement": "Proportion of subjects with ≧1 log10 last on-treatment reduction or last on-treatment reduction to ≦ LLOQ", "setting": "[1]; subjects/N", "value": "10/16"}, {"measurement": "Proportion of subjects with ≧1 log10 postbaseline reduction in CMV DNAemia or postbaseline reduction to ≦ LLOQ", "setting": "[1]; subjects/N", "value": "13/16"}, {"measurement": "rate of preemption", "setting": "[2]; 100 mg twice-weekly (11/50)", "value": 22.0, "unit": "%"}, {"measurement": "incidence of preemptive therapy with anti-CMV STOC", "setting": "[2]; four cohorts ≧100 mg HDP-CDV per week (38 of 146)", "value": 26.0, "unit": "%"}]}
